Laboratory results as given in ChEMBL document CHEMBL3124787, “Discovery of novel bis-oxazolidinone compounds as potential potent and selective antitubercular agents” (Bioorg Med Chem Lett, 2014).
≈ marks a conversion by molar mass, not a printed value.

Assays:
Staphylococcus aureus [1] = assay: Antibacterial activity against methicillin-resistant Staphylococcus aureus ATCC 43300 assessed as growth inhibition after 18 hrs by broth microdilution method; type: functional; conditions: ATCC 43300, 18 h
Staphylococcus aureus [2] = assay: Antibacterial activity against methicillin-resistant Staphylococcus aureus ATCC 33591 assessed as growth inhibition after 18 hrs by broth microdilution method; type: functional; conditions: ATCC 33591, 18 h
Staphylococcus aureus [3] = assay: Antibacterial activity against methicillin-susceptible Staphylococcus aureus ATCC 29213 assessed as growth inhibition after 18 hrs by broth microdilution method; type: functional; conditions: ATCC 29213, 18 h
Staphylococcus aureus [4] = assay: Antibacterial activity against methicillin-susceptible Staphylococcus aureus ATCC 6538 assessed as growth inhibition after 18 hrs by broth microdilution method; type: functional; conditions: ATCC 6538, 18 h
Pseudomonas aeruginosa = assay: Antibacterial activity against Pseudomonas aeruginosa ATCC 27853 assessed as growth inhibition after 18 hrs by broth microdilution method; type: functional; conditions: ATCC 27853, 18 h
Staphylococcus aureus [5] = assay: Antibacterial activity against methicillin-susceptible Staphylococcus aureus CMCC 26003 assessed as growth inhibition after 18 hrs by broth microdilution method; type: functional; conditions: CMCC 26003, 18 h
[6] = Lipophilicity, log P of the compound by HPLC analysis; type: physicochemical
Staphylococcus aureus [7] = assay: Antibacterial activity against methicillin-susceptible Staphylococcus aureus ATCC 25923 assessed as growth inhibition after 18 hrs by broth microdilution method; type: functional; conditions: ATCC 25923, 18 h
Escherichia coli = assay: Antibacterial activity against Escherichia coli ATCC 25922 assessed as growth inhibition after 18 hrs by broth microdilution method; type: functional; conditions: ATCC 25922, 18 h
[8] = system: Mycolicibacterium smegmatis; assay: Antibacterial activity against Mycobacterium smegmatis assessed as growth inhibition after 18 hrs by broth microdilution method; type: functional
[9] = Aqueous solubility of the compound by HPLC analysis; type: physicochemical
[10] = system: Mycobacterium tuberculosis; assay: Antitubercular activity against Mycobacterium tuberculosis H37RV ATCC 27294 assessed as growth inhibition after 3 to 11 days by microdilution method; type: functional

Structure (SMILES)	MIC99 (Staphylococcus aureus [1])	MIC99 (Staphylococcus aureus [2])	MIC99 (Staphylococcus aureus [3])	MIC99 (Staphylococcus aureus [4])	MIC99 (Pseudomonas aeruginosa)	MIC99 (Staphylococcus aureus [5])	logP [6]	MIC99 (Staphylococcus aureus [7])	MIC99 (Escherichia coli)	MIC99 [8]	solubility [9]	MIC [10]
CC(=O)NC[C@H]1CN(c2ccc(OC[C@@H](O)CNc3ccccc3)c(F)c2)C(=O)O1	4 µg/mL (≈ 9.58 µM)	8 µg/mL (≈ 19.2 µM)	8 µg/mL (≈ 19.2 µM)	4 µg/mL (≈ 9.58 µM)	> 32 µg/mL	4 µg/mL (≈ 9.58 µM)	1.42	8 µg/mL (≈ 19.2 µM)	> 32 µg/mL	> 64 µg/mL	124 µM (≈ 51.8 µg/mL)	8 µg/mL (≈ 19.2 µM)
CC(=O)NC[C@H]1CN(c2ccc(OC[C@H](O)CNc3ccccc3)c(F)c2)C(=O)O1	8 µg/mL (≈ 19.2 µM)	8 µg/mL (≈ 19.2 µM)	8 µg/mL (≈ 19.2 µM)	4 µg/mL (≈ 9.58 µM)	> 32 µg/mL	8 µg/mL (≈ 19.2 µM)	0.59	8 µg/mL (≈ 19.2 µM)	> 32 µg/mL	> 64 µg/mL	296 µM (≈ 124 µg/mL)	
CC(=O)NC[C@H]1CN(c2ccc(OC[C@@H](O)CNc3ccc(C#N)cc3)c(F)c2)C(=O)O1	8 µg/mL (≈ 18.1 µM)	16 µg/mL (≈ 36.2 µM)	16 µg/mL (≈ 36.2 µM)	4 µg/mL (≈ 9.04 µM)	> 32 µg/mL	8 µg/mL (≈ 18.1 µM)	2.12	16 µg/mL (≈ 36.2 µM)	> 32 µg/mL	16 µg/mL (≈ 36.2 µM)	47 µM (≈ 20.8 µg/mL)	
CC(=O)NC[C@H]1CN(c2ccc(OC[C@H](O)CNc3ccc(C#N)cc3)c(F)c2)C(=O)O1	16 µg/mL (≈ 36.2 µM)	16 µg/mL (≈ 36.2 µM)	16 µg/mL (≈ 36.2 µM)	8 µg/mL (≈ 18.1 µM)	> 32 µg/mL	8 µg/mL (≈ 18.1 µM)	1.29	16 µg/mL (≈ 36.2 µM)	> 32 µg/mL	32 µg/mL (≈ 72.3 µM)	69 µM (≈ 30.5 µg/mL)	
CC(=O)NC[C@H]1CN(c2ccc(OC[C@@H](O)CNc3cc(C(F)(F)F)cc(C(F)(F)F)c3)c(F)c2)C(=O)O1	16 µg/mL (≈ 28.9 µM)	32 µg/mL (≈ 57.8 µM)	16 µg/mL (≈ 28.9 µM)	8 µg/mL (≈ 14.5 µM)	> 32 µg/mL	16 µg/mL (≈ 28.9 µM)	3.1	16 µg/mL (≈ 28.9 µM)	> 32 µg/mL	16 µg/mL (≈ 28.9 µM)		
CC(=O)NC[C@H]1CN(c2ccc(OC[C@H](O)CNc3cc(C(F)(F)F)cc(C(F)(F)F)c3)c(F)c2)C(=O)O1	> 32 µg/mL	> 32 µg/mL	> 32 µg/mL	32 µg/mL (≈ 57.8 µM)	> 32 µg/mL	> 32 µg/mL	3.01	> 32 µg/mL	> 32 µg/mL	> 64 µg/mL	22 µM (≈ 12.2 µg/mL)	
CC(=O)NC[C@H]1CN(c2ccc(OC[C@@H](O)CNc3ccccn3)c(F)c2)C(=O)O1	> 32 µg/mL	> 32 µg/mL	> 32 µg/mL	> 32 µg/mL	> 32 µg/mL	> 32 µg/mL	1.37	> 32 µg/mL	> 32 µg/mL	> 64 µg/mL	22200 µM (≈ 9290 µg/mL)	
CC(=O)NC[C@H]1CN(c2ccc(OC[C@H](O)CNc3ccccn3)c(F)c2)C(=O)O1	> 32 µg/mL	> 32 µg/mL	> 32 µg/mL	> 32 µg/mL	> 32 µg/mL	> 32 µg/mL	1.6	> 32 µg/mL	> 32 µg/mL	> 64 µg/mL	35100 µM (≈ 14700 µg/mL)	
CC(=O)NC[C@H]1CN(c2ccc(OC[C@@H](O)CNc3cccnc3)c(F)c2)C(=O)O1	> 32 µg/mL	> 32 µg/mL	> 32 µg/mL	> 32 µg/mL	> 32 µg/mL	> 32 µg/mL	0.02	> 32 µg/mL	> 32 µg/mL	> 64 µg/mL	3040 µM (≈ 1270 µg/mL)	
CC(=O)NC[C@H]1CN(c2ccc(OC[C@H](O)CNc3cccnc3)c(F)c2)C(=O)O1	32 µg/mL (≈ 76.5 µM)	32 µg/mL (≈ 76.5 µM)	32 µg/mL (≈ 76.5 µM)	32 µg/mL (≈ 76.5 µM)	> 32 µg/mL	32 µg/mL (≈ 76.5 µM)	-0.18	32 µg/mL (≈ 76.5 µM)	> 32 µg/mL	> 64 µg/mL	10100 µM (≈ 4240 µg/mL)	
CC(=O)NC[C@H]1CN(c2ccc(OC[C@@H](O)CNc3ccncc3)c(F)c2)C(=O)O1	> 32 µg/mL	> 32 µg/mL	> 32 µg/mL	> 32 µg/mL	> 32 µg/mL	> 32 µg/mL	-0.04	> 32 µg/mL	> 32 µg/mL	> 64 µg/mL	17700 µM (≈ 7420 µg/mL)	
NNC(=O)c1ccncc1 [ISONIAZID]										4 µg/mL (≈ 29.2 µM)		0.0625 µg/mL (≈ 0.456 µM)
CC(=O)NC[C@H]1CN(c2ccc(N3CCOCC3)c(F)c2)C(=O)O1 [LINEZOLID]	2 µg/mL (≈ 5.93 µM)	2 µg/mL (≈ 5.93 µM)	2 µg/mL (≈ 5.93 µM)	1 µg/mL (≈ 2.96 µM)	> 32 µg/mL	2 µg/mL (≈ 5.93 µM)		2 µg/mL (≈ 5.93 µM)	> 32 µg/mL			0.25 µg/mL (≈ 0.741 µM)
